# Results: patent US8946215B2, “Hydroxy-substituted imidazo[1,2-a]pyridinecarboxamides and their use” (Bayer Pharma Aktiengesellschaft, priority 2012, dated 2015)
# Counter-ions that a name gives are not always drawn.
# Target: T1, recombinant guanylate cyclase reporter cell line (Rattus norvegicus, UniProt P19686+P20595)
# T1 construct: expressed in transfected cells
# T1 sequence (P20595 1-619): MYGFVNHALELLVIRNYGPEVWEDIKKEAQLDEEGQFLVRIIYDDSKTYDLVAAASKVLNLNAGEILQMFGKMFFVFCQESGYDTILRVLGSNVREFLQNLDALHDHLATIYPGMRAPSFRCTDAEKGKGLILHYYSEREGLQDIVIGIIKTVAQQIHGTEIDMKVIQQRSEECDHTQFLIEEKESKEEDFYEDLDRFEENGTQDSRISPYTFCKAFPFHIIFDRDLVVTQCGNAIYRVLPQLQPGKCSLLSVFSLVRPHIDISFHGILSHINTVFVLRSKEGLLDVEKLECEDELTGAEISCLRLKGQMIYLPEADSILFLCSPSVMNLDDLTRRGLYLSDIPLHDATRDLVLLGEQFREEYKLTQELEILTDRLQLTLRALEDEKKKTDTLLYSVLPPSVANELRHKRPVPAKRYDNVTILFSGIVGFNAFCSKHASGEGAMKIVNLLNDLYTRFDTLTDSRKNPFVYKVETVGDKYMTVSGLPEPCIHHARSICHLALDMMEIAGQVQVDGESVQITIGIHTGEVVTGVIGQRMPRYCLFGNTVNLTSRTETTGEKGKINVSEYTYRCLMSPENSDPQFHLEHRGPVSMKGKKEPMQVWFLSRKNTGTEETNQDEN
# T1 sequence (P19686 1-690): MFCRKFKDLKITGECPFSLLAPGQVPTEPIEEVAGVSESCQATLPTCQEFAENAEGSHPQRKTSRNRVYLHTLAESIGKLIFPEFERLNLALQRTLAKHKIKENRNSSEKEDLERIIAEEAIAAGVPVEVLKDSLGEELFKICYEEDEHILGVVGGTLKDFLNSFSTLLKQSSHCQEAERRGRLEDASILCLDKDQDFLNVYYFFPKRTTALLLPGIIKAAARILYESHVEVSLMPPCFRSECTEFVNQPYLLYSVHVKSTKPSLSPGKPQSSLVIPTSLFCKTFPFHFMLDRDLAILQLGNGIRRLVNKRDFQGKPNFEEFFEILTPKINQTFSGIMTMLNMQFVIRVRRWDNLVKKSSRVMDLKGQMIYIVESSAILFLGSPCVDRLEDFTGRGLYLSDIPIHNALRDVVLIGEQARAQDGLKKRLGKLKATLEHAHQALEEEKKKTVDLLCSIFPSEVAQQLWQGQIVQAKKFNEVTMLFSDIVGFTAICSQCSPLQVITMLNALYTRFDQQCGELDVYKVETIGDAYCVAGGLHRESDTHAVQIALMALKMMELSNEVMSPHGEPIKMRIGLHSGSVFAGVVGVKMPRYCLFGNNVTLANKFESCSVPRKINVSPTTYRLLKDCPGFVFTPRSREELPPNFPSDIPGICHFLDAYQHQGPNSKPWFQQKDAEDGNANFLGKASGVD
# Assay: Action on recombinant guanylate cyclase reporter cell line
# Type: cell-based
# Settings: in some cases mean values obtained from individual determinations
# Description: B-2. Action on Recombinant Guanylate Cyclase Reporter Cell Line
# The cellular action of the compounds according to the invention is determined on a recombinant guanylate cyclase reporter cell line, as described in F. Wunder et al., Anal. Biochem. 339, 104-112 (2005).
# Representative values (MEC=minimal effective concentration) for the compounds according to the invention are shown in the following table (in some cases as mean values obtained from individual determinations): […]
row,Structure (SMILES),MEC (minimal effective concentration)
1,"Cc1nc2c(OCc3c(F)cccc3F)cccn2c1C(=O)NC(CO)COCC(C)C (racemic) [Example 163, rac-8-[(2,6-Difluorobenzyl)oxy]-N-(1-hydroxy-3-isobutoxypropan-2-yl)-2-methylimidazo[1,2-a]-pyridine-3-carboxamide]",1.0 µM
2,"Cc1cc(OCCC(C(F)(F)F)C(F)(F)F)c2nc(C)c(C(=O)NC(CCCC(F)(F)F)C(C)(C)O)n2c1 (racemic) [Example 170, rac-2,6-Dimethyl-N-(7,7,7-trifluoro-2-hydroxy-2-methylheptan-3-yl)-8-[4,4,4-trifluoro-3-(trifluoromethyl)butoxy]imidazo[1,2-a]pyridine-3-carboxamide]",3.0 µM
3,"CCC(O)CNC(=O)c1c(C)nc2c(OCCC(C(F)(F)F)C(F)(F)F)cc(C)cn12 (racemic) [Example 174, rac-N-(2-hydroxybutyl)-2,6-dimethyl-8-[4,4,4-trifluoro-3-(trifluoromethyl)butoxy]imidazo[1,2-a]pyridine-3-carboxamide]",3.0 µM
4,"Cc1cc(OCCC(C(F)(F)F)C(F)(F)F)c2nc(C)c(C(=O)NCC(O)c3ccc(Cl)cc3)n2c1 (racemic) [Example 175, rac-N-[2-(4-chlorophenyl)-2-hydroxyethyl]-2,6-dimethyl-8-[4,4,4-trifluoro-3-(trifluoromethyl)butoxy]imidazo[1,2-a]pyridine-3-carboxamide]",3.0 µM
5,"Cc1cc(OCC2CC(F)(F)C2)c2nc(C)c(C(=O)NC(CCCC(F)(F)F)C(C)(C)O)n2c1 (racemic) [Example 176, rac-8-[(3,3-Difluorocyclobutyl)methoxy]-2,6-dimethyl-N-(7,7,7-trifluoro-2-hydroxy-2-methylheptan-3-yl)imidazo[1,2-a]pyridine-3-carboxamide]",3.0 µM
6,"Cc1cc(OCc2ncccc2F)c2nc(C)c(C(=O)NC(CCCC(F)(F)F)C(C)(C)O)n2c1 (racemic) [Example 178, rac-8-[(3-fluoropyridin-2-yl)methoxy]-2,6-dimethyl-N-(7,7,7-trifluoro-2-hydroxy-2-methylheptan-3-yl)imidazo[1,2-a]pyridine-3-carboxamide trifluoroacetate]",1 µM
7,"Cc1nc2c(OCC3CCCCC3)cccn2c1C(=O)N[C@@H]1CCC[C@@H]1O (relative stereo) [Example 81, 8-(cyclohexylmethoxy)-N-[cis-2-hydroxycyclopentyl]-2-methylimidazo[1,2-a]-pyridine-3-carboxamide]",0.65 µM
8,"Cc1nc2c(OCc3c(F)cccc3F)cccn2c1C(=O)NC(CO)CCC(O)C(F)(F)F (single isomer, unassigned) [Example 138, 8-[(2,6-Difluorobenzyl)oxy]-2-methyl-N-(6,6,6-trifluoro-1,5-dihydroxyhexan-2-yl)imidazo[1,2-a]-pyridine-3-carboxamide]",0.1 µM
9,"CCCCC(NC(=O)c1c(C)nc2c(OCCC(C)C)cc(C)cn12)C(C)(C)O (single isomer, unassigned) [Example 167, ent-N-(2-Hydroxy-2-methylheptan-3-yl)-2,6-dimethyl-8-(3-methylbutoxy)imidazo[1,2-a]pyridine-3-carboxamide]",2.0 µM
10,"Cc1cc(OCCC(C)C)c2nc(C)c(C(=O)NC(CCCC(F)(F)F)C(C)(C)O)n2c1 (single isomer, unassigned; ent-2) [Example 168, ent-2,6-Dimethyl-8-(3-methylbutoxy)-N-(7,7,7-trifluoro-2-hydroxy-2-methylheptan-3-yl)imidazo-[1,2-a]pyridine-3-carboxamide]",3.0 µM
11,"Cc1nc2c(OCc3c(F)cccc3F)cccn2c1C(=O)NC(CO)c1ccc(F)cc1 (single isomer, unassigned; ent-8) [Example 107, ent-8-[(2,6-Difluorobenzyl)oxy]-N-[1-(4-fluorophenyl)-2-hydroxyethyl]-2-methylimidazo[1,2-a]-pyridine-3-carboxamide]",0.1 µM
12,"Cc1nc2c(OCc3c(F)cccc3F)cccn2c1C(=O)NCC(O)C(F)(F)F (single isomer, unassigned; ent-8) [Example 109, ent-8-[(2,6-Difluorobenzyl)oxy]-2-methyl-N-(3,3,3-trifluoro-2-hydroxypropyl)imidazo[1,2-a]-pyridine-3-carboxamide]",0.1 µM

# Next, values leading:
row,MEC (minimal effective concentration),Structure (SMILES)
1,1 µM,"Cc1nc2c(OCc3ncccc3F)cccn2c1C(=O)NC(CCCC(F)(F)F)C(C)(C)O (racemic) [Example 179, rac-8-[(3-fluoropyridin-2-yl)methoxy]-2-methyl-N-(7,7,7-trifluoro-2-hydroxy-2-methylheptan-3-yl)imidazo(1,2-a]pyridine-3-carboxamide]"
2,1 µM,"Cc1nc2c(OCc3ncccc3F)cccn2c1C(=O)NC(CC(F)(F)F)C(C)(C)O (racemic) [Example 180, rac-8-[(3-Fluoropyridin-2-yl)methoxy]-2-methyl-N-(1,1,1-trifluoro-4-hydroxy-4-methylpentan-3-yl)imidazo[1,2-a]pyridine-3-carboxamide]"
3,1 µM,"Cc1cc(OCc2ncccc2F)c2nc(C)c(C(=O)NC(CC(F)(F)F)C(C)(C)O)n2c1 (racemic) [Example 184, rac-8-[(3-fluoropyridin-2-yl)methoxy]-2,6-dimethyl-N-(1,1,1-trifluoro-4-hydroxy-4-methylpentan-3-yl)imidazo[1,2-a]pyridine-3-carboxamide (racemate)]"
4,1 µM,"Cc1cc(OCc2ncccc2F)c2nc(C)c(C(=O)NC(CCC(F)(F)C(F)(F)F)C(C)(C)O)n2c1 (racemic) [Example 186, rac-8-[(3-fluoropyridin-2-yl)methoxy]-2,6-dimethyl-N-(6,6,7,7,7-pentafluoro-2-hydroxy-2-methylheptan-3-yl)imidazo[1,2-a]pyridine-3-carboxamide (racemate)]"
5,1 µM,"Cc1cc(OCc2ncccc2F)c2nc(C)c(C(=O)NC(CCCC(F)(F)C(F)(F)F)C(C)(C)O)n2c1 (racemic) [Example 190, rac-8-[(3-fluoropyridin-2-yl)methoxy]-2,6-dimethyl-N-(7,7,8,8,8-pentafluor-2-hydroxy-2-methyloctan-3-yl)imidazo[1,2-a]pyridine-3-carboxamide (racemate)]"
6,3 µM,"Cc1cc(OCc2ncccc2F)c2nc(C)c(C(=O)NCC(O)C(F)(F)F)n2c1 (racemic) [Example 197, rac-8-[(3-fluoropyridin-2-yl)methoxy]-2,6-dimethyl-N-(3,3,3-trifluoro-2-hydroxypropyl)imidazo[1,2-a]pyridine-3-carboxamide]"
7,0.03 µM,"Cc1cc(OCc2c(F)ccc(F)c2F)c2nc(C)c(C(=O)NC(CCC(F)(F)C(F)(F)F)C(C)(C)O)n2c1 (single isomer, unassigned; ent-2) [Example 198, ent-2,6-dimethyl-N-(6,6,7,7,7-pentafluoro-2-hydroxy-2-methylheptan-3-yl)-8-[(2,3,6-trifluorobenzyl)oxy]imidazo[1,2-a]pyridine-3-carboxamide]"
